target: Estrogen receptor (Ovis aries, UniProt P49885+Q9TU15); experiment: Displacement of [3H]-estradiol (E2) from sheep uterine estrogen receptor

| SMILES | Kd [M l-1] |
| --- | --- |
| CC(=O)C1CCC2C3CCC4=CC(O)CCC4(C)C3CCC12C (stereo not given) | > 0.0003 |
| Oc1ccc2c(cc3ccc4cccc5ccc2c3c45)c1O | 0.000014 |
| O=c1c(-c2ccc(O)cc2)coc2cc(O)ccc12 [DAIDZEIN] | 5.9e-6 |
| Oc1ccc2ccc3c4ccccc4ccc3c2c1 | 4e-6 |
| Oc1ccc2c(ccc3c4ccccc4ccc23)c1O | 8.8e-7 |
| Oc1ccc(C2COc3cc(O)c(O)cc3C2)cc1 (stereo not given) | 0.000011 |
| CCC1Cc2cc(O)ccc2C2=C1c1ccc(O)cc1CC2CC (stereo not given) | 3e-9 |
| Brc1ccc(-c2ccc(Br)cc2)cc1 | > 0.0003 |
| Oc1ccc2ccc3c4ccccc4cc4ccc1c2c43 | 1.1e-6 |
| Brc1ccccc1-c1ccccc1Br | 0.00016 |
